# Results reported in patent US20210278408A1, “METHODS OF TREATMENT OF CANCER WITH SUBSTITUTED PYRROLE AND PYRAZOLE COMPOUNDS AND DIAGNOSIS OF CANCERS SUSCEPTIBLE TO TREATMENT WITH SUBSTITUTED PYRROLE AND PYRAZOLE COMPOUNDS” (Bantam Pharmaceutical, LLC, priority 2018, published 2021).
# Read-outs that look alike come from different tables or passages of the source.
# How the values were obtained:
# [1] = tested on: BJAB (malignant human B-cell-line); assay: BJAB cell proliferation; format: cell-based; details: BJAB (malignant human B-cell-line) cell proliferation, EC50; read-out: BJAB
# From the text: In certain embodiments, the therapeutic compound is one of the compounds of the compound table below. […] In certain embodiments, the therapeutic compound is a compound having an activity as “A,” “B” or “C” in the table below. In certain embodiments, the therapeutic compound is a compound having an activity as “A” or “B” in the table below. In certain embodiments, the therapeutic compound is a compound having an activity as “A” in the table below.
# In certain embodiments, the therapeutic compound is one of the compounds of the compound table below, optionally provided as a pharmaceutically-acceptable salt or N-oxide, and/or a solvate or hydrate. […] In certain embodiments, the therapeutic compound is a compound having an activity as “A,” “B” or “C” in the table below. In certain embodiments, the therapeutic compound is a compound having an activity as “A” or “B” in the table below. In certain embodiments, the therapeutic compound is a compound having an activity as “A” in the table below.
# [2] = tested on: ATF4; assay: ATF4 induction by immunofluorescence in HCT-116 cells transfected with tGFP or FAM210B-GFP; format: cell-based, human; set-up: compound mediated ATF4 induction versus FAM210B expression: dose or concentration left out as unconfirmed
# From the text: FIG. 17 is a set of fluorescence micrographs of HCT-116 cells transfected with a vector expressing tGFP (left) or FAM210B-GFP (right).
# FIG. 18 is a graph of ATF4 expression versus GFP expression for HCT-116 cells transfected with a vector expressing tGFP or FAM210B-GFP.
# HCT-116 cells were transfected with a vector expressing tGFP or FAM210B-GFP. […] Following 4 hrs of drug treatment the cells were fixed, permeabilized, and ATF4 levels determined by immunofluorescence (IF), and FAM210B levels were determined by detection of GFP. Cells were binned based on median ATF4 protein expression and ranked relative to level of FAM210B-tGFP.
# [3] = tested on: A549; assay: Anti-proliferative activity, CellTiter-Glo, 72 hours: A549; format: cell-based, human; details: A549 (non-small cell lung cancer), Cell-Titre-Glo
# Method: (§1) Anti-proliferative activity of BTM compounds. The anti-proliferative activities of Compound A197 and Compound B19 were compared to 4EGI-1 (a known cancer cell growth inhibitor) in a panel of 99 tumor lines. Methods: A panel of 96 tumor and 3 normal cell lines were tested for sensitivity to the test compound. The cell lines were cultured in standard media and pipetted into 96-well plates at the required plating densities. The cells were acclimated for 24 hours prior to compound testing. Compound was prepared as a stock of 20 mM in DMSO. To prepare dose response curves compound was serially diluted in DMSO and dispensed into the plate wells using a Tecan D300e digital dispenser. The final DMSO concentration was 0.15%. After 72 hours of incubation cell number was determined using the CellTiter-Glo® protocol according to the manufacturers instructions (Promega). In this assay, ATP is measured as a surrogate of cell number. The activity of the compound is determined by comparing untreated cells with treated cells and calculating the % of signal retained. Compound activity is measured as an EC50 of maximum level of efficacy and the two are used to compute an activity area. The table below provides a comparison of activity in a data sample.
# [4] = tested on: HCT-116; assay: Anti-proliferative activity, CellTiter-Glo, 72 hours: HCT-116; format: cell-based, human; details: HCT-116 (colorectal cancer), Cell-Titre-Glo
# Method: as §1
# [5] = tested on: HT-1080; assay: Anti-proliferative activity, CellTiter-Glo, 72 hours: HT-1080; format: cell-based, human; details: HT-1080 (fibrosarcoma), Cell-Titre-Glo
# Method: as §1
# [6] = tested on: Jurkat; assay: Anti-proliferative activity, CellTiter-Glo, 72 hours: Jurkat; format: cell-based, human; details: Jurkat (T cell leukemia), Cell-Titre-Glo
# Method: as §1
# [7] = tested on: LoVo; assay: Anti-proliferative activity, CellTiter-Glo, 72 hours: LoVo; format: cell-based, human; details: LoVo (colorectal cancer), Cell-Titre-Glo
# Method: as §1
# [8] = tested on: MDA-MB-157; assay: Anti-proliferative activity, CellTiter-Glo, 72 hours: MDA-MB-157; format: cell-based, human; details: MDA-MB-157 (breast cancer); 72 hours; Cell-Titre-Glo
# Method: as §1
# [9] = tested on: MDA-MB-231; assay: Anti-proliferative activity, CellTiter-Glo, 72 hours: MDA-MB-231; format: cell-based, human; details: MDA-MB-231 (breast cancer), Cell-Titre-Glo
# Method: as §1
# [10] = tested on: MIA PaCa-2; assay: Anti-proliferative activity, CellTiter-Glo, 72 hours: MIA PaCa-2; format: cell-based, human; details: MIA PaCa-2 (pancreactic cancer (carcinoma)), Cell-Titre-Glo
# Method: as §1
# [11] = tested on: NCI-H2122; assay: Anti-proliferative activity, CellTiter-Glo, 72 hours: NCI-H2122; format: cell-based, human; details: NCI-H2122 (non-small cell lung cancer), Cell-Titre-Glo
# Method: as §1
# [12] = tested on: NCI-H460; assay: Anti-proliferative activity, CellTiter-Glo, 72 hours: NCI-H460; format: cell-based, human; details: NCI-H460 (non-small cell lung cancer), Cell-Titre-Glo
# Method: as §1
# [13] = tested on: SK-MEL-28; assay: Anti-proliferative activity, CellTiter-Glo, 72 hours: SK-MEL-28; format: cell-based, human; details: SK-MEL-28 (melanoma), Cell-Titre-Glo
# Method: as §1
# [14] = tested on: SU-DHL-10; assay: Anti-proliferative activity, CellTiter-Glo, 72 hours: SU-DHL-10; format: cell-based, human; details: SU-DHL-10 (B-cell lymphoma), Cell-Titre-Glo
# Method: as §1
# [15] = tested on: SU-DHL-6; assay: Anti-proliferative activity, CellTiter-Glo, 72 hours: SU-DHL-6; format: cell-based, human; details: SU-DHL-6 (B-cell lymphoma), Cell-Titre-Glo
# Method: as §1
# [16] = tested on: SU-DHL-4; assay: Anti-proliferative activity, CellTiter-Glo, 72 hours: SU-DHL-4; format: cell-based, human; details: SU-DHL-4 (B-cell lymphoma), Cell-Titre-Glo
# Method: as §1
# [17] = tested on: HUVEC; assay: Anti-proliferative activity, CellTiter-Glo, 72 hours: HUVEC; format: cell-based, human; details: HUVEC (primary endolithial cells), Cell-Titre-Glo
# Method: as §1
# [18] = tested on: HK-2; assay: Anti-proliferative activity, CellTiter-Glo, 72 hours: HK-2; format: cell-based, human; details: HK-2 (kidney epilithial), Cell-Titre-Glo
# Method: as §1
compound,measurement,setting,value
"Cc1nn(-c2nc(C3=CCC(C(F)(F)F)CC3)c(SC(C)C)s2)c(C(=O)O)c1-c1cccc(F)c1 (stereo not drawn) [Compound B5, 4-(3-fluorophenyl)-1-(5-(isopropylthio)-4-(4-(trifluoromethyl)cyclohex-1-en-1-yl)thiazol-2-yl)-3-methyl-1H-pyrazole-5-carboxylic acid]",EC50,[1],< 1 µM
same,compound mediated ATF4 induction versus FAM210B expression,"[2]; HCT-116 transfected with tGFP or FAM210B-GFP, 4 hrs, immunofluorescence",induction of ATF4 is inhibited by FAM210B expression in HCT-116 cells
same,effect of PERK inhibitors on compound mediated induction of ATF4,[2]; follow-up studies,no effect
"O=C(O)C(Cc1ccccc1[N+](=O)[O-])=NNc1nc(-c2ccc(Cl)c(Cl)c2)cs1 (mixture of isomers) [Compound 4EGI-1, 4EGI-1, reference compound]",IC50,[3],21.8 µM
same,IC50,[4],10.5 µM
same,IC50,[5],4.66 µM
same,IC50,[6],13.2 µM
same,IC50,[7],14.1 µM
same,IC50,[8],11.8 µM
same,IC50,[9],5.77 µM
same,IC50,[10],14.3 µM
same,IC50,[11],13.8 µM
same,IC50,[12],9.46 µM
same,IC50,[13],33.4 µM
same,IC50,[14],19.5 µM
same,IC50,[15],7.26 µM
same,IC50,[16],8.42 µM
same,IC50,[17],7.99 µM
same,IC50,[18],46 µM
arsenite [reference compound],effect of FAM210B expression on induction of ATF4 by the agent,[2],no effect
tunicamycin [reference compound],effect of FAM210B expression on induction of ATF4 by the agent,[2]; alternate pathways of ATF4 induction,no effect
"Cc1nn(-c2nc(N3CCC(C(F)(F)F)C3)c(SC(C)C)s2)c(C(=O)O)c1-c1cccc(F)c1 (stereo not drawn) [Compound B34, 4-(3-fluorophenyl)-1-(5-(isopropylthio)-4-(3-(trifluoromethyl)pyrrolidin-1-yl)thiazol-2-yl)-3-methyl-1H-pyrazole-5-carboxylic acid]",EC50,[1],1 to 5 µM
"COc1ccc(-c2nc(-n3nc(C)c(-c4cccc(F)c4)c3C(=O)O)sc2-c2ccc(C(F)(F)F)cc2)cc1 [Compound B43, 4-(3-fluorophenyl)-1-(4-(4-methoxyphenyl)-5-(4-(trifluoromethyl)phenyl)thiazol-2-yl)-3-methyl-1H-pyrazole-5-carboxylic acid]",EC50,[1],1 to 5 µM
"Cc1nn(-c2nc(-c3ccc(C(F)(F)F)cc3)c(CO)s2)c(C(=O)O)c1-c1cccc(F)c1 [Compound B60, 4-(3-fluorophenyl)-1-(5-(hydroxymethyl)-4-(4-(trifluoromethyl)phenyl)thiazol-2-yl)-3-methyl-1H-pyrazole-5-carboxylic acid]",EC50,[1],> 20 µM
"Cc1nn(-c2nc(N3CCN(C4CC4)CC3)c(SC(C)C)s2)c(C(=O)O)c1-c1cccc(F)c1 [Compound B25, 1-(4-(4-cyclopropylpiperazin-1-yl)-5-(isopropylthio)thiazol-2-yl)-4-(3-fluorophenyl)-3-methyl-1H-pyrazole-5-carboxylic acid]",EC50,[1],5 to 10 µM
"COC(C)c1sc(-n2nc(C)c(-c3cccc(F)c3)c2C(=O)O)nc1-c1ccc(C(F)(F)F)cc1 (stereo not drawn) [Compound B66, 4-(3-fluorophenyl)-1-(5-(1-methoxyethyl)-4-(4-(trifluoromethyl)phenyl)thiazol-2-yl)-3-methyl-1H-pyrazole-5-carboxylic acid]",EC50,[1],5 to 10 µM
"Cc1nn(-c2nc(-c3ccc(Cl)c(C(=O)N4CCOCC4)c3)c(SC(C)C)s2)c(C(=O)O)c1-c1cccc(F)c1 [Compound B8, 1-(4-(4-chloro-3-(morpholine-4-carbonyl)phenyl)-5-(isopropylthio)thiazol-2-yl)-4-(3-fluorophenyl)-3-methyl-1H-pyrazole-5-carboxylic acid]",EC50,[1],> 40 µM
"Cc1nn(-c2nc(N3CCC(C(F)(F)F)CC3)c(SC(C)C)s2)c(C(=O)O)c1-c1cccc(F)c1 [Compound B12, 4-(3-fluorophenyl)-1-(5-(isopropylthio)-4-(4-(trifluoromethyl)piperidin-1-yl)thiazol-2-yl)-3-methyl-1H-pyrazole-5-carboxylic acid]",EC50,[1],< 1 µM
"CC(C)=Cc1nc(-n2nc(C)c(-c3cccc(F)c3)c2C(=O)O)sc1-c1ccc(C(F)(F)F)cc1 [Compound B37, 4-(3-fluorophenyl)-3-methyl-1-(4-(2-methylprop-1-en-1-yl)-5-(4-(trifluoromethyl)phenyl)thiazol-2-yl)-1H-pyrazole-5-carboxylic acid]",EC50,[1],10 to 25 µM
"Cc1nn(-c2nc(C3CCC(C(F)(F)F)CC3)cs2)c(C(=O)O)c1-c1cccc(F)c1 (stereo not drawn) [Compound B21, 4-(3-fluorophenyl)-3-methyl-1-(4-(4-(trifluoromethyl)cyclohexyl)thiazol-2-yl)-1H-pyrazole-5-carboxylic acid]",EC50,[1],> 20 µM
"Cc1nn(-c2nc(N3CCC4(CC3)CC4)c(SC(C)C)s2)c(C(=O)O)c1-c1cccc(F)c1 [Compound B41, 4-(3-fluorophenyl)-1-(5-(isopropylthio)-4-(6-azaspiro[2.5]octan-6-yl)thiazol-2-yl)-3-methyl-1H-pyrazole-5-carboxylic acid]",EC50,[1],1 to 5 µM
"CC(=O)N1CCN(c2nc(-n3nc(C)c(-c4cccc(F)c4)c3C(=O)O)sc2SC(C)C)CC1 [Compound B27, 1-(4-(4-acetylpiperazin-1-yl)-5-(isopropylthio)thiazol-2-yl)-4-(3-fluorophenyl)-3-methyl-1H-pyrazole-5-carboxylic acid]",EC50,[1],> 20 µM
"Cc1cc(C(=O)O)n(-c2nc(-c3ccc(Cl)c(OC4COC4)c3)c(SC(C)C)s2)n1 [Compound B2, 1-(4-(4-chloro-3-(oxetan-3-yloxy)phenyl)-5-(isopropylthio)thiazol-2-yl)-3-methyl-1H-pyrazole-5-carboxylic acid]",EC50,[1],> 40 µM
"Cc1nnc(-c2ccc(-c3nc(-n4nc(C)c(-c5cccc(F)c5)c4C(=O)O)sc3SC(C)C)cc2)o1 [Compound B3, 4-(3-fluorophenyl)-1-(5-(isopropylthio)-4-(4-(5-methyl-1,3,4-oxadiazol-2-yl)phenyl)thiazol-2-yl)-3-methyl-1H-pyrazole-5-carboxylic acid]",EC50,[1],25 to 50 µM
"Cc1nn(-c2nc(N3CCN(CC(F)(F)F)CC3)c(SC(C)C)s2)c(C(=O)O)c1-c1cccc(F)c1 [Compound B23, 4-(3-fluorophenyl)-1-(5-(isopropylthio)-4-(4-(2,2,2-trifluoroethyl)piperazin-1-yl)thiazol-2-yl)-3-methyl-1H-pyrazole-5-carboxylic acid]",EC50,[1],5 to 10 µM
"COc1ccc(-c2nc(-n3nc(C)c(-c4cccc(F)c4)c3C(=O)O)sc2-c2ccc(OC)cc2)cc1 [Compound B44, 1-(4,5-bis(4-methoxyphenyl)thiazol-2-yl)-4-(3-fluorophenyl)-3-methyl-1H-pyrazole-5-carboxylic acid]",EC50,[1],10 to 25 µM
